Structures can show the parent of a compound that is named as a salt.
Experiments:
[1] = test system: vincristine resistant murine leukemia P388/VCR; assay: In vivo evaluation of MDR-1 reversal agents against vincristine resistant murine leukemia P388/VCR implanted IP in CDF1 mice; conditions: vincristine 0.2 + compound 6.3 mg/kg, days 1-7, IP
Description: Tumor cell ascites are harvested 5-7 days later. For drug testing, groups of 10-15 CDF1 mice (DBA/2×Balb/cF1 hybrids; Charles River Laboratories, Inc) are injected IP with 0.5 ml of diluted ascitic fluid containing 1×10^6 viable P388/VCR tumor cells. […] Drugs are administered once daily, by the IP, intravenous (IV) or oral route, starting one day after tumor implantation and using a variety of treatment schedules. Mice are weighed periodically, survival is recorded for 30 days post tumor implantation, and Mean survival times are calculated for all groups of mice. Statistical analysis of Mean survival times is carried out using the Student t-test.

[2] = test system: human epidermoid carcinoma KB/8.5; assay: In vivo evaluation of MDR-1 reversal agents against human epidermoid carcinoma KB/8.5 implanted SC in athymic nude mice; design: species or system human (tumor in athymic nude mice)
Description: The multiple drug resistant human epidermoid carcinoma KB/8.5 is propagated in medium containing colchicine (10 nanograms/ml) to maintain drug resistance. Colchicine is removed from the medium, for two cell passages, prior to subcutaneous (SC) implant of 8×10^6 KB/8.5 tumor cells into athymic "nude" mice (Harlan Sprague Dawley). […] Individual mouse tumor mass and mean tumor mass for each treatment group is determined on Day +14 and Day +21 of the test period. For each treatment group, the Relative Tumor Growth, RTG, is calculated as follows: [formula]
Statistical analysis of Log Relative Tumor Growth is carried out using the Student t-test. Transformation of the data from absolute mean tumor mass (mgs tumor mass) to Log Relative Tumor Growth prior to statistical analysis has two beneficial effects:
1) it corrects the data for differences in mean tumor mass of the different treatment groups at the start of the test period (Day 0); and
2) the Log transformation of the data more adequately reflects the exponential growth pattern of the SC tumors and makes the use of the Student t-test more appropriate.

[3] = doxorubicin 8 mg/kg IV + compound 25 mg/kg/dose SC at -2 h and +2 h
[4] = doxorubicin 8 mg/kg IV + compound 50 mg/kg/dose SC at -2 h and +2 h
[5] = doxorubicin 8 mg/kg IV + compound 100 mg/kg/dose SC at -2 h and +2 h
[6] = doxorubicin 8 mg/kg IV + compound 150 mg/kg/dose SC at -2 h and +2 h
[7] = doxorubicin 8 mg/kg IV + compound […] SC at -2 h and +2 h
[8] = doxorubicin 8 mg/kg IV + compound 200 mg/kg/dose SC at -2 h and +2 h
[9] = doxorubicin 8 mg/kg IV + compound 200 mg/kg/dose SC x2

Row | SMILES | Relative Tumor Growth Day 21 [2, 3] | Relative Tumor Growth Day 21 [2, 4] | Relative Tumor Growth Day 21 [2, 5] | Relative Tumor Growth Day 21 [2, 7] | Relative Tumor Growth Day 21 [2, 8] | also measured
1 | COc1ccc(C(C#N)(CCN2CCc3cc(OC)c(OC)cc3C2)Sc2ccc(C)cc2)cc1OC (stereo not drawn) [Example 9, α-(3,4-Dimethoxyphenyl)-3,4-dihydro-6,7-dimethoxy-α-[(4-methylphenyl)thio]-2(1H]-isoquinolinebutanenitrile] |  |  |  |  |  | MST [1]: 16.4 days; % ILS ([1]; vs vincristine alone): +10%
2 | COc1ccc(C(C#N)(CCCCCN2Cc3cc(OC)c(OC)cc3C2)Sc2ccc(C)cc2)cc1OC.Cl (stereo not drawn) [Example 27, α-(3,4-Dimethoxyphenyl)-1,3-dihydro-5,6-dimethoxy-α-[(4-methylphenyl)thio]-2H-isoindole-2-heptanenitrile hydrochloride] | 10.30 | 9.55 | 6.39 | 9.66 |  | Relative Tumor Growth Day 14 [2, 6]: Toxic; Relative Tumor Growth Day 21 [2, 6]: Toxic
3 | COc1ccc(C(C#N)(CCCCCN2CCc3cc(OC)c(OCCCl)cc3C2)Sc2ccc(C)cc2)cc1OC (stereo not drawn) [Example 32, 7-(2-Chloroethoxy)-α-(3,4-dimethoxyphenyl)-3,4-dihydro 6-methoxy-α-[(4-methylphenyl)thio]-2(1H)-isoquinoline heptanenitrile] | 11.30 |  |  | 19.93 |  | 
4 | COc1ccc(C(CCCCCN2CCc3cc4c(cc3C2)OCO4)Sc2ccc(C)cc2)cc1OC (stereo not shown) [Example 47] | 9.73 | 16.54 | 10.09 | 17.53 | 11.04 | 
5 | COc1ccc(C(CCCCCCN2Cc3cc(OC)c(OC)cc3C2)Sc2ccc(C)cc2)cc1OC (stereo not shown) [Example 49, 2-[7-(3,4-Dimethoxyphenyl]-7-[(4-methylphenyl]thio]-beptyl]-2,3-dihydro-5,6-dimethoxy-1H-isotndole] | 5.04 |  |  | 6.41 |  | 
6 | COc1ccc(C(CCCCCCN2CCc3cc(OC)c(OC)cc3C2)Sc2ccc(C)cc2)cc1OC (stereo not shown) [Example 50, 2-[7-(3,4-Dimethoxyphenyl)-7-[(4-methylphenyl)thio]-heptyl]-1,2,3,4-tetrahydro-6,7-dimethoxyisoquinoline] | 7.86 | 8.76 | 7.08 | 10.30 | 6.87 | 
7 | COc1ccc(CC2c3cc(OC)c(OC)cc3CCN2CCCCCC(C#N)(Sc2ccc(C)cc2)c2ccc(OC)c(OC)c2)cc1OC (stereo not drawn) [Example 55, α-(3,4-Dimethoxyphenyl)-1-[(3,4-dimethoxyphenyl)-methyl]-3,4-dihydro-6,7-dimethoxy-α-[(4-methylphenyl)-thio]-2(1H)-isoquinolineheptanenitrile] |  | 12.20 | 12.37 |  | 7.15 | 
8 | COc1ccc(C(CCCCCN2CCc3cc(OC)c(OC)cc3C2)SC2CCCCC2)cc1OC (stereo not shown) [Example 61, 2-[6-(Cyclohexylthio)-6-(3,4-dimethoxyphenyl)hexyl]-1,2,3,4-tetrahydro-6,7-dimethoxyisoquinoline] |  | 8.66 | 6.86 | 8.88 |  | 
9 | COc1ccc(C(C#N)(CCCCCN2CCc3cc(OC)c(OC)cc3C2)SC2CCCCC2)cc1OC (stereo not drawn) [Example 62, α-(Cyclohexylthio)-α-(3,4-dimethoxyphenyl)-3,4-dihydro6,7-dimethoxy-2(1H)-isoquinolineheptane nitrile] |  | 9.47 | 6.08 | 10.17 |  | toxicity remark (tox), Day 14 [2, 9]: tox; toxicity remark (tox), Day 21 [2, 9]: tox
10 | COc1ccc(C(CCCCCN2CCc3cc(OC)c(OC)cc3C2)SC(C)(C)C)cc1OC (stereo not shown) [Example 66, 2-[6-(3,4-Dimethoxyphenyl)-6[(1,1-dimethylethyl)thio]hexyl]-1,2,3,4-tetrahydro-6,7-dimethoxyisoquinoline] |  |  | 8.17 |  | 7.07 | 
11 | COc1ccc(C(CCCCCCN2CCc3cc(OC)c(OC)c(OC)c3C2)Sc2ccc(C)cc2)cc1OC (stereo not shown) [Example 67, 2-[7-(3,4-Dimethoxyphenyl)-7-[(4-methylphenyl)thio]-heptyl]-1,2,3,4-tetrahydro-6,7,8-trimethoxyisoquinoline] |  | 11.52 | 7.76 | 9.81 | 8.55 | 
12 | COc1ccc(C(CCCCCCN2CCc3cc(OC)c(OC)cc3C2)Sc2ccc(C)cc2)cc1O (stereo not shown) [Example 72, 5-[7-(3,4-Dihydro-6,7-dimethoxy-2(1H)-isoquinolinyl)-1[(4-methylphenyl)thio]heptyl]-2-methoxyphenol] |  |  |  | 9.58 |  | 
13 | COc1cc2c(cc1OC)CN(CCCCCCC(Sc1ccc(C)cc1)c1ccc(OC)c(OCCn3ccnc3)c1)CC2 (stereo not shown) [Example 74] |  |  |  |  |  | Relative Tumor Growth Day 21 ([2]; doxorubicin 8 mg/kg IV + compound 25 mg/kg/dose SC at -2 h and +2 h, listed as Ex-74): 9.11; Relative Tumor Growth Day 21 ([2]; doxorubicin 8 mg/kg IV + compound 50 mg/kg/dose SC at -2 h and +2 h, listed as Ex-74): 9.18; Relative Tumor Growth Day 21 ([2]; doxorubicin 8 mg/kg IV + compound […] SC at -2 h and +2 h, listed as Ex-74): 9.00
14 | COc1cc2c(cc1OC)CN(CCCCCCC(Sc1ccc(C)cc1)c1ccc(OC)c(OCCn3ccnc3)c1)CC2 (stereo not shown) [Example 75, 1,2,3,4-Tetrahydro-2-[7-[3-[2-(1H-imidazol-1-yl)-ethoxy]-4-methoxyphenyl]-7-[(4-methylphenvl]thio]-heptyl-6,7-dimethoxyisoquinolinedihydrochloride] |  |  |  |  |  | Relative Tumor Growth Day 21 ([2]; doxorubicin 8 mg/kg IV + compound 25 mg/kg/dose SC at -2 h and +2 h, listed as Ex-75, dihydrochloride): 11.05; Relative Tumor Growth Day 21 ([2]; doxorubicin 8 mg/kg IV + compound 50 mg/kg/dose SC at -2 h and +2 h, listed as Ex-75, dihydrochloride): 9.12; Relative Tumor Growth Day 21 ([2]; doxorubicin 8 mg/kg IV + compound 100 mg/kg/dose SC at -2 h and +2 h, listed as Ex-75, dihydrochloride): 6.74; Relative Tumor Growth Day 21 ([2]; doxorubicin 8 mg/kg IV + compound 200 mg/kg/dose SC at -2 h and +2 h, listed as Ex-75, dihydrochloride): 7.70; Relative Tumor Growth Day 21 ([2]; doxorubicin 8 mg/kg IV + compound […] SC at -2 h and +2 h, listed as Ex-75, dihydrochloride): 14.21
15 | CCC(CCCCCN1CCc2cc(OC)c(OC)cc2C1)(Sc1ccc(C)cc1)c1ccc(OC)c(OC)c1 (stereo not shown) [Example 78, 2-[6-(3,4-Dimethoxyphenyl)-6-[(4-methylphenyl)thio]-octyl]-1,2,3,4-tetrahydro-6,7-dimethoxyisoquinoline] | 10.14 |  |  | 10.27 |  | 
16 | COc1ccc(C(C#N)(CCCCCN2Cc3cc(Cl)c(Cl)cc3C2)Sc2ccc(C)cc2)cc1OC (stereo not shown) [Example 81] |  |  |  | 9.52 |  | 
17 | COc1cc2c(cc1OC)CN(CCCCCC(Sc1ccc(C)cc1)c1ccc3c(c1)OCO3)CC2 (stereo not shown) [Example 89] | 8.02 | 9.40 | 11.04 | 10.70 | 6.04 | 
18 | COc1cc2c(cc1OC)CN(CCCCCC(Sc1ccc(C)cc1)c1ccc(OC(F)(F)F)cc1)CC2 (stereo not shown) [Example 92, 1,2,3,4-Tetrahydro-6,7-dimethoxy-2-[6-[(4-methyl-phenyl]thio]-6-[trifluoromethoxy)phenyl]hexylisoquinoline] | 12.05 | 11.75 | 10.48 | 12.75 | 8.71 | 

— patent US5639887A, “MDR reversal agents” (priority 1995, dated 1997)
